“Also recorded” adds a separate entry of the source.
Legend:
[1] = test system: HCoV-OC43; assay: viral load by qRT-PCR of HCoV-OC43 N protein mRNA in BEAS-2B cells; type: cell-based, Human coronavirus OC43; settings: 48 h treatment from 24 h post infection, FIG. 1C
Method: (§1) Cell Culture: BEAS-2B cells (an epithelial cell line that was isolated from normal human bronchial epithelium) were purchased from the American Type Culture Collection (ATCC) through Cedarlane Corp., Burlington, Canada. The cells were cultured in bronchial epithelial cell growth medium (Lonza/Clonetics Corporation, Basel, Switzerland) supplemented with 10% fetal bovine serum (FBS). Cells were cultured at 37° C. in a humidified incubator balanced with 5% CO2.
(§2) Compound solution preparation for in vitro experiments: Candidate compounds were dissolved in anhydrous Dimethyl Sulfoxide (DMSO) (available from Sigma Aldrich), filtered by a 0.20 μm PTFE filter and added to culture medium to make a working solution at designated concentrations. Final concentration of DMSO in culture medium was ≤0.1%. Same volume of DMSO was used as control.
(§3) An apoptosis study was conducted (see FIGS. 1A-1C). HCoV-OC43 infection (referred to as “OC43” herein) see Archer, S. L., et al., Redox Biology ([…]) 58:102508) was performed in BEAS-2B cells (an epithelial cell line that was isolated from normal human bronchial epithelium, available from ATCC through Cedarlane Corp., Burlington, Canada). Cells were counted and then seeded in a cell culture plate overnight. The cell culture media was replaced with serum-free media containing 3 focus-forming units (ffu)/cell of OC43 virus. The cells were cultured in this inoculum for 2 hours. Then the inoculum was replaced with complete growth medium and incubated at 33° C. until 72 hours post-infection (the time of the experimental endpoint). Cells were then treated for 48 hours with AIF Inhibitor compounds starting at 24 hours post infection. Concentration of compounds: AIF inhibitor 1, AIF inhibitor 3, and AIF inhibitor 6 were used at a concentration of 10 uM; Drpitor1a, which is a Drp1 inhibitor and is not an AIF inhibitor) was used at a concentration of 1 uM. Cell viability was measured by cell count (see FIG. 1A). Apoptotic cells were measured by TUNEL staining (see FIG. 1B) (see Archer, S. L., et al., Redox Biol. (2022) 58:102508). Cells were dual stained with Click-iT® Plus TUNEL (available from Thermo Fisher, Waltham, MA, USA) and 4′,6-diamidino-2-phenylindole (DAPI) (available from Thermo Fisher, Waltham, MA, USA). Images were captured on a Leica SP8 confocal microscope using a 63×1.4 NA objective and a white light laser at 488 nm. Emission acquisition gating was 510-530 nm (for TUNEL). A 405 nm laser diode was used for DAPI excitation and the emission acquisition gate was set at 420-480 nm. Viral loads were quantified using qRT-PCR (see FIG. 1C). mRNA level of HCoV-OC43 N protein was measured and compared among treatment groups.

[2] = test system: BEAS-2B cells infected with HCoV-OC43; assay: apoptosis by TUNEL staining in HCoV-OC43 infected BEAS-2B cells; type: cell-based, human; settings: for apoptosis (TUNEL positive cells): BEAS-2B, 48 h treatment from 24 h post infection, FIG. 1B; for effectiveness in the in vitro screening to confirm biological activity: in vitro screening as described in the patent
Method: as §1, §2, §3

[3] = test system: BEAS-2B cells infected with HCoV-OC43; assay: cell viability by cell count in HCoV-OC43 infected BEAS-2B cells; type: cell-based, human; settings: 1 uM, 48 h treatment from 24 h post infection, endpoint 72 h, FIG. 1A
Method: as §1, §2
An apoptosis study was conducted (see FIGS. 1A-1C). […] Cells were counted and then seeded in a cell culture plate overnight. […] Cell viability was measured by cell count (see FIG. 1A). Apoptotic cells were measured by TUNEL staining (see FIG. 1B) (see Archer, S. L., et al., Redox Biol. (2022) 58:102508). […] Viral loads were quantified using qRT-PCR (see FIG. 1C). mRNA level of HCoV-OC43 N protein was measured and compared among treatment groups.

[4] = test system: murine hepatitis virus-1 (MHV-1); assay: murine model of MHV-1 pneumonia (lung photographs, micro-CT, hemodynamics); type: in vivo; settings: 1 mg/kg QD IP 5 days
Method: Five-week-old A/J mice (Jackson Labs, Bar Harbour, Maine) were given an intranasal inoculation of either MHV-1 (5000 PFU/17 μl) or an identical volume of saline as control. AIF inhibitor 6 was administered for 5 days (1 mg/kg, QD, IP) post infection. At day 5 post-infection, mice were anesthetized with a single IP injection of ketamine/xylazine (150 mg/kg and 10 mg/kg, respectively). O2 saturation was measured while mice breathed room air, following which they were intubated and mechanically ventilated, which increased their O2 saturation. Transcutaneous O2 saturation was monitored during the procedure using a MouseSTAT® Jr. rodent pulse oximeter attached to the rear paw (Kent Scientific Corporation, Torrington, CT, USA). Right heart catheterization (RHC) was performed using a 1.2F Scisense pressure-volume catheter (Transonic Systems Inc., Ithaca, NY, USA) via a closed chest approach. Mice were ventilated with normoxic gas (room air, 20.6% O2) for 10 minutes, followed by hypoxic gas for 10 minutes (10% 02 balanced with N2) and then followed by normoxic gas (room air, 20.6% O2) for 10 minutes. This regimen was designed to elicit hypoxic pulmonary vasoconstriction (HPV), a normal physiologic response of the pulmonary arteries to airway hypoxia.
Referring to FIGS. 2A-2B, photographs and micro-CT images are shown from a study probing the effect of AIF Inhibitors on murine lung that had been exposed to MHV-1. Lungs were fixed with 4% formaldehyde (PFA) and perfused with 25% barium sulfate via the trachea and imaged by microCT. The micro-CT images were acquired using a VECTor4CT pre-clinical scanner (MILabs B.V., Utrecht, Netherlands) equipped with a cone beam X-ray CT system. The measurements used an acceleration voltage of 50 kVp and X-ray tube current of 430 μA in the ultra-focus mode, allowing acquisition of 3,600 projections with exposure time 40 ms, resulting in a 25 μm resolution. Tomographic CT images of FIG. 2B were compiled using MILabs reconstruction software. For quantification and segmentation, CT image data was manually processed using PMOD 3.9 software (PMOD Technologies Ltd., Zurich, Switzerland).

[5] = MHV-1 infected mice, vs vehicle, FIG. 2A

SMILES | viral load (Relative N expression, Nucleocapsid mRNA) ([1]; HCoV-OC43, 1 uM) | apoptosis (TUNEL positive cells) ([2]; HCoV-OC43, 1 uM) | cell numbers (cell count) after HCoV-OC43 infection [3] | viral load (Relative N expression, Nucleocapsid mRNA) ([1]; HCoV-OC43, 10 uM) | apoptosis (TUNEL positive cells) ([2]; HCoV-OC43, 10 uM) | effectiveness in the in vitro screening to confirm biological activity [2] | lung edema [4, 5] | structural damage of the lungs [4, 5] | lung perfusion (micro-CT, barium contrast) ([4]; MHV-1 infected mice, vs vehicle, FIG. 2B) | hypoxic pulmonary vasoconstriction (rise in RVSP with hypoxia) ([4]; MHV-1 infected mouse, 10% O2 for 10 min, one mouse per group, FIG. 2C)
O=C1c2ccncc2C(=O)c2c1[nH]c1ccccc21 [Drpitor1a, reference compound] | reduced viral load | reduced | reversed |  |  |  |  |  |  | 
CN1C(CC2=NC(C3CCOCC3)CC(=O)N2)=NCc2ccccc21 (stereo not shown) [Compound 1, 2-[(1-methyl-1,4-dihydroquinazolin-2-yl)methyl)-6-(tetrahydro-2H-pyran-4-yl)-5,6-dihydropyrimidin-4 (3H)-one] |  |  |  | reduced viral load | reduced | particularly effective |  |  |  | 
O=C1c2ccccc2C(=O)N1CCc1c[nH]c2ccc(OCc3ccccc3)cc12 [Compound 6, 2-(2-(5-(benzyloxy)-1H-indol-3-yl)ethyl) isoindoline-1,3-dione] |  |  |  | lowers the viral titer; also recorded: reduced viral load | reduced | particularly effective | reduced lung edema | significantly less structural damage | increased lung perfusion | restored hypoxic pulmonary vasoconstriction
CCN(CC)C(=O)c1nc2ccccc2cc1C(=O)c1cc(=O)[nH]c2ccccc12 [Compound 3, N,N-diethyl-3-(2-oxo-1,2-dihydroquinoline-4-carbonyl) quinoline-2-carboxamide] |  |  |  | reduced viral load | reduced | particularly effective |  |  |  | 

— US20250228853A1, “Apoptosis Inhibitors” (Queen's University at Kingston, priority 2024, published 2025)
